Source: patent US7008630B2, “Lipochroman-6 as NO-synthase inhibitor and uses” (L' Oreal, priority 2000, dated 2006)

Target: T1, inducible NO-synthase (NO-synthase 2) (Homo sapiens, UniProt P35228)
T1 construct: positive control (induction of the enzyme): mixtures of γ-interferon (1 000 U/ml) and interleukin-1β (100 U/ml); endogenous in cells
Assay: Activity on inducible NO-synthase: decrease in nitrate and nitrite concentration after stimulation of NO-synthase 2 (test of Heck et al.)
Format: cell-based
Conditions: for % inhibition: induction with γ-interferon 1 000 U/ml and interleukin-1β 100 U/ml, nitrites and nitrates measured
Procedure: The activity of lipochroman-6 on inducible NO-synthase was evaluated in the test described by Heck et al. (J. B. C., Vol. 267, No. 30, 21277–21280, Oct. 25, 1992).
In order to determine the activity of the product to be tested, the amount of stable NO reaction products (nitrites and nitrates) is measured using the nitric calorimetric assay kit sold by the company Boehringer under the reference 1756.28.
The lipochroman-6 was tested at the concentrations of 0.005% and 0.01% (weight/volume) in ethanol.

T1 sequence (P35228 whole entry, species assumed): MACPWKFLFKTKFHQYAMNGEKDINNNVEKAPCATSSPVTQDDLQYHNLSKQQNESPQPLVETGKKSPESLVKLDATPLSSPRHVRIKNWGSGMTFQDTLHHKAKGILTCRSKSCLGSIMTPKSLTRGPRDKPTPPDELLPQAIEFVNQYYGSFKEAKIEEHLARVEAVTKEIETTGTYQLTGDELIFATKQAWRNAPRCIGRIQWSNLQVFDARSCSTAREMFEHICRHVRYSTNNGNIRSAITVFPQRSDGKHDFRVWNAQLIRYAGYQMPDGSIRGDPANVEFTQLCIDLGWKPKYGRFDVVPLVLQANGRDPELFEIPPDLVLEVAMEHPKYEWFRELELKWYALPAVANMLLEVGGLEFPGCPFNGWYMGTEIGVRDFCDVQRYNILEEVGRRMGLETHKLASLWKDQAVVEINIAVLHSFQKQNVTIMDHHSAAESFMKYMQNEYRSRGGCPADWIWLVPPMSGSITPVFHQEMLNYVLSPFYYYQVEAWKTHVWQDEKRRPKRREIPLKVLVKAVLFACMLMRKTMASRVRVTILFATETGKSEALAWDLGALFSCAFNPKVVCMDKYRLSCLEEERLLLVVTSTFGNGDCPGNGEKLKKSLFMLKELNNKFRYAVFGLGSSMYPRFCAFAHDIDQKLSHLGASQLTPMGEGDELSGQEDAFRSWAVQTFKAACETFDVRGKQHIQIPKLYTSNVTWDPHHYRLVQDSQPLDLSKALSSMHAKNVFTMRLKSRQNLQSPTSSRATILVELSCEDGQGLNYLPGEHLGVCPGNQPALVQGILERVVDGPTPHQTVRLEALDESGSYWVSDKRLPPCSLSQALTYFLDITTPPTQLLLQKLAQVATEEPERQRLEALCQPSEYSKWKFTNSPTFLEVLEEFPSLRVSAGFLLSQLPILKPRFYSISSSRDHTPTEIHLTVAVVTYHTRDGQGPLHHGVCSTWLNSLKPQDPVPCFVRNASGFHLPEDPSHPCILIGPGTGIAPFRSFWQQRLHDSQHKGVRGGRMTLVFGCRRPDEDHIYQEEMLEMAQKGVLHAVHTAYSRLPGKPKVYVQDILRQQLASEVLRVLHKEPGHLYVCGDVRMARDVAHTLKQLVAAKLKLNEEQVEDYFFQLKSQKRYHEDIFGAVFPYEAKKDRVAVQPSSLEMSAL

effect on inducible NO-synthase (in words): inhibitory effect
% inhibition (lipochroman-6 at 0.005% (weight/volume) in ethanol): 38%
% inhibition (lipochroman-6 at 0.01% (weight/volume) in ethanol): 95%
Structure (SMILES): COc1cc2c(cc1O)CCC(C)(C)O2 [Lipochroman-6, lipochroman-6]
